The record followed here is patent publication US20220354860A1, “HETEROCYCLIC DERIVATIVES AND USE THEREOF” (Fochon Pharmaceuticals, Ltd., priority 2019, published 2022).

Assay [1] deals with T1, URAT1 (Homo sapiens, UniProt Q96S37).
T1 sequence (Q96S37 1-553): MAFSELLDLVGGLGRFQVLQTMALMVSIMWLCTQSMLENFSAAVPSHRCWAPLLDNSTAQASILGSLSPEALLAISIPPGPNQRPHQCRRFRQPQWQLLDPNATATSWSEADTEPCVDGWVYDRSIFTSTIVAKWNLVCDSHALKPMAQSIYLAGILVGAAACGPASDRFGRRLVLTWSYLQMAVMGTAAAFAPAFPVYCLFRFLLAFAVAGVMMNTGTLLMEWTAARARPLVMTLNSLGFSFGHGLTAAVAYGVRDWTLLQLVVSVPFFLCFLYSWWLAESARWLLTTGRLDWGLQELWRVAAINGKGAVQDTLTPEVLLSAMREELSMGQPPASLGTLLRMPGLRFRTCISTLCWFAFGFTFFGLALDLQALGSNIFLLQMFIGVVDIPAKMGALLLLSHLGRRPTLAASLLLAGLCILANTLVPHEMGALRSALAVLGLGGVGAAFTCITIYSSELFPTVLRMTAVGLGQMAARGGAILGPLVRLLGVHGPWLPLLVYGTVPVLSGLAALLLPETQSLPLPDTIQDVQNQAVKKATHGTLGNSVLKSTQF
Nature of the assay: URAT1 inhibitor activity, 14C-uric acid uptake in HEK293-URAT1 cells. Type of assay: cell-based. The following applies: URAT1 inhibition, 14C-Uric acid 5.0 μmol/L, 2 min. Here is the method:
The potency of the compounds of formula (I) as inhibitors of the URAT1 was determined as follow.
HEK293-URAT1 cell Lines were donated by Japan Fuji Biomedical Research Institute. Negative control cell of HEK293 (MOCK cells) which was transfected with pcDNA3.1 empty vector. HEK293-URAT1 cell lines and MOCK cell lines were cultured in complete growth medium consisting of DMEM supplemented with 10% FBS, penicillin and streptomycin.
Preparation of working solution: Each stock solutions was diluted to different concentrations (6, 20, 60, 200 and 600 μmol/L) with DMSO as 200× working solution, which was then diluted to 2× compound working solution with HBSS (Cl^− free) buffer. Radiolabeled substrate ^14C-Uric acid solution was diluted with HBSS (Cl^− free) buffer to obtain 2× working solution which was mixed with an equal volume of 2× compound working solution to obtain the mixture of radiolabeled substrate and compound working solution.
HER293-URAT1 and MOCK cells were seeded onto 24-well plates at the density of 1.5×10^6 cells per well. The cells were incubated at 37° C., 5% CO2 overnight. After cultured for approximately 2 to 3 days, cells were used for the experiments. The culture medium were removed from the wells, and cells were washed with HBSS (Cl^− free) and incubated in 37° C. HBSS (Cl^− free) for 10 min. HBSS was replaced with 500 μL of the mixture of radiolabeled substrate and compound working solution. The final concentration of ^14C-Uric acid in the assay was 5.0 μmol/L. Plates were incubated at 37° C., 5% CO2 for 2 min, and the reaction was stopped by the addition of pre-chilled HBSS (Cl^− free) by washing three times. 400 μL, NaOH (0.1 mmol/L) was added to lyse the cells and the cell lysate was collected to scintillation vials, and 3 ml scintillant (Aquasol-2, PerkinElmer) was added and after mixing completely, the radioactivity was counted by Tri-Carb 2910TR liquid scintillation counter. Each concentration of compounds, positive control and negative control were repeated in two wells (n=2). Inhibition % data were calculated using the formula:
Inhibition=[100×(U−U0)/(Uc−U0)]%, and analyzed using Prism5 software. • U0: Average of signals of MOCK cells; • Uc: Average of signals of radiolabeled substrate. The half inhibition concentration of the tested compounds to URAT1 were analyzed using Prism 5 software.

For assay [2], the target named is T2, CYP2C9 (Homo sapiens, UniProt P11712).
T2 construct: conducted using human liver microsomes; from tissue; host or cells: human liver microsomes
Nature of the assay: CYP inhibition assay in human liver microsomes. The class given is in vitro ADME. Conditions: human liver microsomes 0.200 mg/mL, 37° C. for 10 minutes. Here is the method:
The CYP inhibition assay was conducted using human liver microsomes at 0.200 mg/mL with a marker substrate for CYP2C9. The substrate concentrations employed were similar to published Michaelis-Menten constants (Km) for each of the respective reactions. The test compounds were added at 8 concentrations (0, 0.0500, 0.150, 0.500, 1.50, 5.00, 15.0, and 50.0 μM). A known inhibitor for the isozyme, at a single concentration (3.00 μM) in duplicates, was selected as the positive control. The reaction in the presence of the organic solvent instead of test compounds served as vehicle control. The final content of organic solvent in all the reactions was up to 0.5% DMSO and 0.5% methanol.
Reactions were initiated by adding NADPH followed by incubation at 37° C. for 10 minutes. And reactions were terminated by adding a 2-fold volume ice-cold acetonitrile with internal standards. Samples were processed and analyzed by liquid chromatography tandem mass spectrometry (LC-MS/MS).The results are given in the Table 4.

Assay [3] addresses T1, URAT1. Nature of the assay: URAT1 inhibitor activity, MDCK cells. Type of assay: cell-based. On the set-up: host or cells: MDCK. Conditions: URAT1 inhibition.

T2 sequence (P11712 whole entry): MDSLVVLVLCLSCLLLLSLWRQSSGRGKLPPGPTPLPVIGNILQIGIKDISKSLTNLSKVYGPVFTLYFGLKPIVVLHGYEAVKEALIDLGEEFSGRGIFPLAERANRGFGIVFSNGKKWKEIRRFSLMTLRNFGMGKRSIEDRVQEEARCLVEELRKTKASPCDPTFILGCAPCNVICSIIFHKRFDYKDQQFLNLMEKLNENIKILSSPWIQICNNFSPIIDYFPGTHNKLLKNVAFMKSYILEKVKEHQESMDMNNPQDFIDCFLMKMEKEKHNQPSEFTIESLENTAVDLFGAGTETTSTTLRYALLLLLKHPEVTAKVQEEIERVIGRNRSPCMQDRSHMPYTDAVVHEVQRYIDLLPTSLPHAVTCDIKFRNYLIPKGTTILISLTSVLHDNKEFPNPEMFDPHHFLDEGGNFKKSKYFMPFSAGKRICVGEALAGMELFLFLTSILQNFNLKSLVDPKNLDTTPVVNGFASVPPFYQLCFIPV

Consider `C[C@@H]1CN(C(=O)c2cc(Br)c(O)c(Br)c2)c2c(cnn2C)O1` [Example 1, (R)-(3,5-dibromo-4-hydroxyphenyl)(1,5-dimethyl-5,6-dihydropyrazolo[4,3-b][1,4]oxazin-7(1H)-yl)methanone], for which the IC50 (commonly the midpoint of a concentration-inhibition curve) in assay [1] is 62 nM; in assay [2], 15500 nM; in assay [3], 25 nM.

In the case of `Cn1ncc2c1N(C(=O)c1cc(Br)c(O)c(Br)c1)CCO2` [Example 2, (3,5-Dibromo-4-hydroxyphenyl)(1-methyl-5,6-dihydropyrazolo[4,3-b][1,4]oxazin-7(1H)-yl)methanone], the IC50 in assay [1] was 69 nM; in assay [2] it was above 50000 nM; in assay [3] it was 29 nM.

`O=C(c1cc(Br)c(O)c(Br)c1)N1CCOc2cn[nH]c21` [Example 3, (3,5-dibromo-4-hydroxyphenyl)(5,6-dihydropyrazolo[4,3-b][1,4]oxazin-7(1H)-yl)methanone]: 130 nM corresponded to half-maximal inhibition in assay [1] (IC50).

For the compound `C[C@H]1CN(C(=O)c2cc(Br)c(O)c(Br)c2)c2c(cnn2C)O1` [Example 5, (S)-(3,5-dibromo-4-hydroxyphenyl) (1,5-dimethyl-5,6-dihydropyrazolo[4,3-b][1,4]oxazin-7(1H)-yl)methanone], the IC50 stood at 40 nM in assay [1], 18900 nM in assay [2] and 93 nM in assay [3].

With `Cc1nn(C)c2c1OCCN2C(=O)c1cc(Br)c(O)c(Br)c1` [Example 10, (3,5-dibromo-4-hydroxyphenyl)(1,3-dimethyl-5,6-dihydropyrazolo[4,3-b] [1,4]oxazin-7(1H)-yl)methanone], the IC50 is below 30 nM in assay [1], 16200 nM in assay [2] and 85 nM in assay [3].

As for `Cn1ncc2c1N(C(=O)c1cc(Br)c(O)c(Br)c1)CCC2` [Example 11, (3,5-dibromo-4-hydroxyphenyl)(1-methyl-1,4,5,6-tetrahydro-7H-pyrazolo [3,4-b]pyridin-7-yl)methanone], in assay [1], the IC50 is 100 nM.

The compound `Cn1ncc2c1N(C(=O)c1cc(Br)c(O)c(Br)c1)CC(C)(C)O2` [Example 12, (3,5-dibromo-4-hydroxyphenyl)(1,5,5-trimethyl-5,6-dihydropyrazolo[4,3-b] [1,4]oxazin-7(1H)-yl)methanone] showed an IC50 in assay [3] of 80 nM.

For `Cc1nn(C)c2c1OC(C)(C)CN2C(=O)c1cc(Br)c(O)c(Br)c1` [Example 13, (3,5-dibromo-4-hydroxyphenyl)(1,3,5,5-tetramethyl-5,6-dihydropyrazolo[4,3-b][1,4]oxazin-7(1H)-yl)methanone], in assay [3], 84 nM corresponded to half-maximal inhibition (IC50).

For the compound `Cn1ncc2c1N(C(=O)c1cc(Cl)c(O)c(Cl)c1)CCO2` [Example 14, (3,5-dichloro-4-hydroxyphenyl)(1-methyl-5,6-dihydropyrazolo[4,3-b][1,4]oxazin-7(1H)-yl)methanone], half-maximal inhibition in assay [3] (IC50) required 252 nM.

`Cc1nn(C)c2c1O[C@@H](C)CN2C(=O)c1cc(Br)c(O)c(Br)c1` [Example 15, (S)-(3,5-dibromo-4-hydroxyphenyl) (1,3,5-trimethyl-5,6-dihydropyrazolo[4,3-b][1,4]oxazin-7(1H)-yl)methanone] had an IC50 in assay [3] of 126 nM.

Take `Cn1ncc2c1N(C(=O)c1cc(Br)c(O)c(Br)c1)CC1(CC1)O2` [Example 16, (3,5-dibromo-4-hydroxyphenyl)(1′-methyl-1′H-spiro[cyclopropane-1,5′-pyrazolo[4,3-b][1,4]oxazin]-7′(6′H)-yl) methanone]: the IC50 came to 4250 nM in assay [2] and 48 nM in assay [3].

`Cc1nn(C)c2c1OC1(CC1)CN2C(=O)c1cc(Br)c(O)c(Br)c1` [Example 17, (3,5-dibromo-4-hydroxyphenyl)(1′,3′-dimethyl-1′H-spiro[cyclopropane-1,5′-pyrazolo[4,3-b][1,4]oxazin]-7′(6′H)-yl)methanone]: the half-inhibitory concentration (IC50) in assay [2] was 10400 nM; in assay [3], 60 nM.

Regarding `Cc1nn(C)c2c1O[C@H](C)CN2C(=O)c1cc(Br)c(O)c(Br)c1` [Example 18], the IC50 in assay [2] came out at 16000 nM; in assay [3], 37 nM.

For `Cn1cc2c(n1)N(C(=O)c1cc(Br)c(O)c(Br)c1)CCO2` [Example 19, (3,5-dibromo-4-hydroxyphenyl)(2-methyl-5,6-dihydropyrazolo[4,3-b][1,4]oxazin-7(2H)-yl)methanone], the IC50 in assay [1] came out at 339 nM.

With `O=C(c1cc(Br)c(O)c(Br)c1)N1CCOc2[nH]ncc21` [Example 20, (3,5-dibromo-4-hydroxyphenyl)(5,6-dihydropyrazolo[3,4-b][1,4]oxazin-4(1H)-yl)methanone], the IC50 in assay [1] came to 235 nM.

For `Cn1ncc2c1OCCN2C(=O)c1cc(Br)c(O)c(Br)c1` [Example 21, (3,5-dibromo-4-hydroxyphenyl)(1-methyl-5,6-dihydropyrazolo[3,4-b][1,4]oxazin-4(1H)-yl)methanone], the IC50 in assay [1] was determined as 297 nM.

In the case of `Cc1nn(C)c2c1SCCN2C(=O)c1cc(Br)c(O)c(Br)c1` [Example 23, (3,5-dibromo-4-hydroxyphenyl)(1,3-dimethyl-5,6-dihydropyrazolo[4,3-b][1,4]thiazin-7(1H)-yl)methanone], the IC50 in assay [3] is 189 nM.
